Columns and labels:
[1] = human, in vivo
[2] = tested on: CYP 1A2, 2A6, 2B6, 2C8, 2C9, 2C19, 2D6, 2E1, 3A4/5, or 4A9/11; assay: CYP inhibition in human liver microsomes; settings: therapeutic plasma concentrations

O=C(Nc1c(Cl)c[n+]([O-])cc1Cl)c1ccc(OC(F)F)c(OCC2CC2)c1 [roflumilast N-oxide]
Linearity of pharmacokinetics (Human pharmacokinetics; 250 mcg to 1,000 mcg): dose-proportional | Time of maximum plasma concentrations after dosing (Human pharmacokinetics; fasted state): about eight | Cmax (Human pharmacokinetics; in vivo): 8.5 ng/mL | Plasma AUC (Human pharmacokinetics; in vivo): 315 ugxh/L | Time to steady state plasma concentrations (Human pharmacokinetics; once daily dosing): ~6 days | Median plasma effective half-life (Human pharmacokinetics; oral dose): ~30 h | Absorption or pharmacokinetics on co-administration with an antacid [1]: did not alter | Inhibition of CYP 1A2, 2A6, 2B6, 2C8, 2C9, 2C19, 2D6, 2E1, 3A4/5, or 4A9/11 [2]: do not inhibit
